In brackets after ≈: the same amount, converted by molar mass.
Experiments:
rat platelet = assay: Platelet aggregation; format: cell-based; details: concentration of 3 x 10-^5 M
Text: Neither l-0-octadecyl-2-0-(morpholinocarbonyl)glycero-3-phosphocholine nor 3-octadecyloxy-2-(morpholino-carbonyloxy)propyl 2-thiazolioethyl phosphate at a concentration of 3 x 10-^5 M caused platelet aggregation against rat platelet.

S 180 cells [1] = assay: Activity toward mice bearing the Sarcoma 180 tumor (subcutaneous transplant, tumor weight); format: in vivo, ICR mice; details: 25 mg/kg injected into the tumor every four days from the 7th day, four times; for Proliferation inhibition ratio (%): 24th day, against control group; for Weight of tumor: measured on the 24th day
Experimental: ICR mice (male, 8-week-old, a group consisting of 5 mice), as divided into two groups, were transplanted subcutaneously with 1 x 10^6 S 180 cells per mouse, respectively. One group was treated with the drug by injection into the tumor every four days commencing with the 7th day after the transplantation, four times in total. On the 24th day, the average tumor weight for the drug-treated group was measured, and the ratio (the tumor proliferation inhibition ratio) against that for the control group (not treated with the drug) was calculated.

S 180 cells [2] = assay: Antitumor effect against mice bearing S 180 tumor (intraperitoneal inoculation, survival); format: in vivo, ICR mice; details: 0.3 mg/mouse once a day, three times in total; for T/C (%) (life-span prolongation ratio against the control group): control group average survival 12.2 days; for Number of mice surviving for 50 days: group of five ICR mice inoculated intraperitoneally with 1 x 10^5 S 180 cells
Experimental: ICR mice (a group consisting of five mice) were inoculated intraperitoneally with 1 x 10^5 S 180 cells per mouse, and then'given 0.3 mg/mouse of l-O-octadecyl-2-0-(morpholinocarbonyl)glycero-3-phosphocholine (Compound No. 1) dissolved in physiological saline once a day, three times in total, on the day of the inoculation and on the next day and the second day after the inoculation. The average of the survival days for the control group (consisting of 5 mice) was 12.2 days, whereas the number of surviving' mice in the drug-treated group on the 50th day and the life-span prolongation ratio (T/C) against the control group, are shown in Table 1.
In a similar manner, a test was carried out with 1-O-octadecyl-2-O-methylglycero-3-phosphocholine used as a control drug (A), with the results being shown below.

Meth A cells = assay: Necrotic effect against the Meth A tumor tissue; format: in vivo, Balb/c mice; details: given intravenously, 7 days after transplantation, observed after 24 hours
[3] = system: human myelocytic leukemia cells HL-60; assay: Growth inhibiting effect and differentiation inducing activity on HL-60 (method of R. Gallo et al.); format: cell-based; details: HL-60 cells
Experimental: According to the method of R. Gallo et al. described in Blood 54 (3), 713 (1979), the growth inhibiting effect (IG effect)and differentiation inducing activity of 1-0-octadecyl-2-O-(morpholinocarbonyl)glycero-3-phosphocholine against human myelocytic leukemia cells HL-60 were assayed.

CCCCCCCCCCCCCCCCCCOCC(COP(=O)([O-])OCC[n+]1ccsc1)OC(=O)N1CCOCC1 (centres unmarked) [Drug 3, 3-Octadecyloxy-2-(morpholinocarbonyloxy)propyl 2-thiazolioethyl phosphate]
caused platelet aggregation against rat platelet (rat platelet): Neither
Proliferation inhibition ratio (%) (S 180 cells [1]): 73.9%
Weight of tumor (S 180 cells [1]): 0.39 g

CCCCCCCCCCCCCCCCCCOCC(COP(=O)([O-])OCC[N+](C)(C)C)OC(=O)N1CCCCC1 (centres unmarked) [Drug 2, 1-O-Octadecyl-2-O-(piperidinocarbonyl)glycero-3-phosphocholine]
Proliferation inhibition ratio (%) (S 180 cells [1]): 52.4%
Weight of tumor (S 180 cells [1]): 0.71 g

CCCCCCCCCCCCCCCCCCOCC(COP(=O)([O-])OCC[N+](C)(C)C)OC (centres unmarked) [Control drug A, 1-O-octadecyl-2-O-methylglycero-3-phosphocholine, reference compound]
T/C (%) (life-span prolongation ratio against the control group) (S 180 cells [2]): 162%
Number of mice surviving for 50 days (S 180 cells [2]): 0

CCCCCCCCCCCCCCCCCCOCC(COP(=O)([O-])OCC[N+](C)(C)C)OC(=O)N1CCCC1 (centres unmarked) [1-O-octadecyl-2-O-(pyrrolidinocarbonyl)glycero-3-phospho-choline]
change of the tumor tissue (necrosis) (Meth A cells; 25 mg/kg): necrosis through bleeding

CCCCCCCCCCCCCCCCCCOCC(COP(=O)([O-])OCC[N+](C)(C)C)OC(=O)N1CCOCC1 (stereo not drawn) [Compound 1, l-O-octadecyl-2-0-(morpholinocarbonyl)glycero-3-phosphocholine]
caused platelet aggregation against rat platelet (rat platelet): Neither
differentiation inducing activity ([3]; concentration of 1-2 ug/ml): mild differentiation inducing activity
IC50 ([3]; Homo sapiens, read-out: IG effect on HL-60 (GD50)): 0.6 µg/mL (≈ 0.963 µM)
change of the tumor tissue (necrosis) (Meth A cells; 1.25 mg/kg): necrosis through bleeding
T/C (%) (life-span prolongation ratio against the control group) (S 180 cells [2]): >336%
Number of mice surviving for 50 days (S 180 cells [2]): 2

Source: patent publication EP0171968A1, “Use of a phospholipid derivative” (Takeda Chemical Industries, Ltd., priority 1984, dated 1986)
